In patent publication US4843079A, “Fused heteroalkylene quinolinamines” (Hoechst-Roussel Pharmaceuticals, Inc., priority 1988, dated 1989):
Structures can show the parent of a compound that is named as a salt. Where two headings read alike, the source gives them in different places.

Key:
acetylcholinesterase = acetylcholinesterase (Homo sapiens, UniProt P22303); assay: biochemical
[1] = test system: scopolamine Induced Memory Deficit; assay: Dark Avoidance Assay (scopolamine-impaired memory); type: in vivo; conditions: mice, retested 24 hours later
Method: This utility of the compounds of the present invention mentioned above can also be ascertained by determining the ability of these compounds to restore cholinergically deficient memory in the Dark Avoidance Assay. In this assay mice are tested for their ability to remember an unpleasant stimulus for a period of 24 hours. A mouse is placed in a chamber that contains a dark compartment; a strong incandescent light drives it to the dark compartment, where an electric shock is administered through metal plates on the floor. The animal is removed from the testing apparatus and tested again, 24 hours later, for the ability to remember the electric shock.
If scopolamine, an anticholinergic that is known to cause memory impairment, is administered before an animal's initial exposure to the test chamber, the animal re-enters the dark compartment shortly after being placed in the test chamber 24 hours later. This effect of scopolamine is blocked by an active test compound, resulting in a greater interval before re-entry in the dark compartment.
The results for an active compound are expressed as the percent of a group of animals in which the effect of scopolamine is blocked, as manifested by an increased interval between being placed in the test chamber and re-entering the dark compartment.

[2] = photometric method of Ellman et al., read-out: IC50, Cholinesterase Inhibition

Chain of acetylcholinesterase (P22303 32-614): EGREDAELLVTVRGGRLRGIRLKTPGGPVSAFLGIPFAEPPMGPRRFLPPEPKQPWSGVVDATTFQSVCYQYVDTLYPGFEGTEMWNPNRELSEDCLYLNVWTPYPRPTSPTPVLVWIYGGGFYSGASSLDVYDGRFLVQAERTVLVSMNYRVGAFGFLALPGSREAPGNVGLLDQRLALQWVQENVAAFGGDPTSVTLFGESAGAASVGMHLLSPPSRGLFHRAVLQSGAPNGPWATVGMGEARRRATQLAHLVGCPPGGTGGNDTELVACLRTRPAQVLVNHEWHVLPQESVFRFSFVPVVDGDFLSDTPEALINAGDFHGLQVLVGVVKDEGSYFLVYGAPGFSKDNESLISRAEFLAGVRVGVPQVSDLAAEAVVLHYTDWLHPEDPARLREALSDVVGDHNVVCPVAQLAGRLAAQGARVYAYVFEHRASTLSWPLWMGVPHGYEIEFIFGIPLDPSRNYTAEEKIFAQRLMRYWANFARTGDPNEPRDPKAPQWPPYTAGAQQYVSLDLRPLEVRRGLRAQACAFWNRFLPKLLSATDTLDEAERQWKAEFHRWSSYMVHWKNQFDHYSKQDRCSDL

Question: `Cc1ccc2c(N)c3c(nc2c1)CCSC3` [10-amino-3,4-dihydro-7-methyl-1H-thiopyrano[4,3-b]quinoline] was tested. Which IC50 (acetylcholinesterase; [2]) did it give?
Answer: 190 nM

Question: Which IC50 (acetylcholinesterase; [2]) does the source give for `Nc1c2c(nc3ccccc13)CCS2` [9-amino-2,3-dihydrothieno[3,2-b]quinoline] here?
Answer: 440 nM

Question: With `Nc1c2c(nc3cc(F)ccc13)CCSC2` [10-amino-3,4-dihydro-7-fluoro-1H-thiopyrano [4,3-b]quinoline] as the compound, how does the IC50 (acetylcholinesterase; [2]) read?
Answer: 150 nM

Question: What about the “% of animals with scopolamine Induced Memory Deficit Reversed” value (“% of animals” below) ([1]; dose 0.31 mg/kg body weight) of the same compound?
Answer: 67%

Question: For `Nc1c2c(nc3cc(C(F)(F)F)ccc13)CCSC2` [10-amino-3,4-dihydro-7-trifluoromethyl-1H-thiopyrano[4,3-b]quinoline], which IC50 (acetylcholinesterase) is on record?
Answer: 640 nM

Question: `CNC(=O)Oc1ccc2c(c1)[C@]1(C)CCN(C)[C@@H]1N2C` [Physostigmine, reference compound] was tested. Which “% of animals” value ([1]; dose 0.31 mg/kg body weight) did it give?
Answer: 20%

Question: For `c1ccc(CNc2c3c(nc4ccccc24)CCSC3)cc1` [10-benzylamino-3,4-dihydro-1H-thiopyrano[4,3-b]quinoline hydrochloride], which IC50 (acetylcholinesterase) is on record?
Answer: 3900 nM

Question: Which IC50 (acetylcholinesterase; [2]) does the source give for `Nc1c2c(nc3ccccc13)CCOC2` [10-Amino-3,4-dihydro-1H-pyrano[4,3-b]quinoline fumarate] here?
Answer: 200 nM

Question: `Nc1c2c(nc3ccccc13)CCSC2` [10-amino-3,4-dihydro-1H-thiopyrano[4,3-b]quinoline] was tested. Which IC50 (acetylcholinesterase; [2]) did it give?
Answer: 970 nM

Question: What about the “% of animals” value ([1]; dose 0.16 mg/kg body weight) of the same compound?
Answer: 27%

Question: How did the IC50 (acetylcholinesterase; [2]) turn out when `Nc1c2c(nc3ccccc13)CSC2` [9-Amino-1,3-dihydrothieno[3,4-b]quinoline] was run?
Answer: 47 nM

Question: And the “% of animals” value ([1]; dose 0.31 mg/kg body weight)?
Answer: 14%
